The source of these data is patent US20240158379A1, “NOVEL BENZOFURAN, BENZOTHIOPHENE, AND INDOLE ANALOGS THAT INHIBIT THE FORMATION OF TAU OLIGOMERS AND THEIR METHOD OF USE” (OLIGOMERIX INC., priority 2016, published 2024).

Some results are limits rather than exact numbers.

recombinant human tau 4R2N, sequence (P10636 other isoform, or with tags, fused parts or gaps): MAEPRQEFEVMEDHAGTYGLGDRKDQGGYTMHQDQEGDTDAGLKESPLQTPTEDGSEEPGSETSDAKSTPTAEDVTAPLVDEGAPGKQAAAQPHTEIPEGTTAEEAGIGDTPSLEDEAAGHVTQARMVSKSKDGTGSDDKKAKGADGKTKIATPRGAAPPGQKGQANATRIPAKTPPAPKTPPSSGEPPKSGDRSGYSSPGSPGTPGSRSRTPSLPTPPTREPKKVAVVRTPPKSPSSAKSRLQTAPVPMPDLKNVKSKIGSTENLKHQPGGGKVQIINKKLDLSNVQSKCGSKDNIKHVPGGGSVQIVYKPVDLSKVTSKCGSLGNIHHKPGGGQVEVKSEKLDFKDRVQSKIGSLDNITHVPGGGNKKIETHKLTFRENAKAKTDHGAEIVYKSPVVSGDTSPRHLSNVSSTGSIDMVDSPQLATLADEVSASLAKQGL

The target of this test is recombinant human tau 4R2N (Homo sapiens (Human), UniProt P10636). The test can be described thus: AlphaLisa Assay (ALA), primary screen for inhibition of tau oligomer formation. Format: biochemical. Conditions: tau target 300 nM, Tris-HCl pH 7.4, 4 hours room temperature, compound 0.098 uM-50 uM. An excerpt:
Bacterial recombinant human tau 4R2N (the largest isoform of tau in the central nervous system, 441 amino acids in length, Seq ID 1) constructs with either 6×-His or StrepII N-terminal epitope tags were purified from bacterial lysate using denaturing conditions to prepare tau in its monomeric form.
ALA Assay: AlphaLisa Assay (ALA) was used as a primary screen for identifying compounds that inhibit tau oligomer formation. It is a bead based assay that only gives signal when the beads are in close proximity to each other. When the tau monomer (target) is incubated it forms higher order aggregates (dimer, trimer, tetramer, etc) so that when the donor and acceptor beads bind to the epitope tags of tau they are in close proximity and generate signal.
Tau target (equal mixture of each construct at 300 nM) was prepared in buffer (Tris-HCl pH 7.4) and was incubated in 96-well plates at room temperature for 4 hours with vehicle control (DMSO) and a dose range of a compound of the disclosure (0.098 uM-50 uM). AlphaLisa acceptor beads & donor beads with ligands to the epitope tags (Perkin Elmer) were diluted (final 20 ug/mL per bead) in bead buffer (25 mM HEPES pH 7.4, 100 mM NaCl, 0.1% Tween-20), added to the wells and incubated 1 hour at room temperature. The positive control (non-incubated target) & blank (no tau) were prepared and mixed with beads in bead buffer and the plate was read immediately using the EnVision plate reader (Perkin Elmer).
For orientation: In Alpha technology, singlet oxygen from a donor bead excites a nearby acceptor bead.
For `Cc1ccc(-c2c(CCC(=O)O)oc3ccc(Br)cc23)o1` [Example 12, 3-[5-Bromo-3-(5-methyl-furan-2-yl)-benzofuran-2-yl]-propionic acid], the IC50 was 6.09 µM.

Consider `COc1cc(-c2ccc3oc(CCC(C)=O)c(-c4ccc(Cl)s4)c3c2)ccn1` [Example 19, 4-(3-(5-chlorothiophen-2-yl)-5-(2-methoxypyridin-4-yl)benzofuran-2-yl)butan-2-one], for which the 50% inhibitory concentration (IC50) was determined as 20.8 µM.

In the case of `CC(=O)CCc1oc2ccc(-c3ccc(Cl)nc3)cc2c1-c1ccc(Cl)s1` [Example 20, 4-(5-(6-Chloropyridin-3-yl)-3-(5-chlorothiophen-2-yl)benzofuran-2-yl)butan-2-one], the IC50 came out at 15.4 µM.

Turning to `CC(=O)CCc1oc2ccc(-c3cccs3)cc2c1-c1ccc(C)o1` [Example 8, 4-(3-(5-Methylfuran-2-yl)-5-(thiophen-2-yl)benzofuran-2-yl)butan-2-one], the IC50 came to 1.31 µM.

In the case of `Cc1ccc(-c2c(CCC(=O)N3CCC(O)CC3)oc3ccc(Br)cc23)o1` [Example 13, 3-[5-Bromo-3-(5-methyl-furan-2-yl)-benzofuran-2-yl]-1-(4-hydroxy-piperidin-1-yl)-propan-1-one], the half-inhibitory concentration (IC50) came out at 5.78 µM.

Consider `CC(=O)CCc1oc2ccc(-c3ccncc3)cc2c1-c1ccc(Cl)s1` [Example 18, 4-(3-(5-Chlorothiophen-2-yl)-5-(pyridin-4-yl)benzofuran-2-yl)butan-2-one], for which the half-inhibitory concentration (IC50) was 7.67 µM.

In the case of `COc1ccc(-c2ccc3c(-c4ccc(C)o4)c(CCC(C)=O)oc3c2)cn1` [Example 28, 4-(6-(6-Methoxypyridin-3-yl)-3-(5-methylfuran-2-yl)benzofuran-2-yl)butan-2-one], the half-maximal inhibitory concentration (IC50) was determined as 2.48 µM.

As for `CC(=O)CCc1oc2ccc(Br)cc2c1CCc1ccc(C)cc1` [Example 26, 4-(5-Bromo-3-(2-p-tolylethyl)benzofuran-2-yl)butan-2-one], the IC50 was greater than 10 µM.

As for `CC(=O)CCc1oc2ccc(Br)cc2c1CCC(C)C` [Example 9, 4-[5-Bromo-3-(3-methyl-butyl)-benzofuran-2-yl]-butan-2-one], the IC50 was greater than 10 µM.

Consider `CC(=O)CCc1oc2cc(Br)ccc2c1-c1ccc(C)o1` [Example 21, 4-(6-Bromo-3-(5-methylfuran-2-yl)benzofuran-2-yl)butan-2-one], for which the IC50 stood at 1.17 µM.

Turning to `CC(=O)CCc1oc2cc(-c3ccncc3)ccc2c1-c1ccc(C)o1` [Example 22, 4-(3-(5-Methylfuran-2-yl)-6-(pyridin-4-yl)benzofuran-2-yl)butan-2-one], the 50% inhibitory concentration (IC50) worked out at 3.42 µM.

Usually IC50 stands for the point on the concentration scale where inhibition reaches its midpoint.
